Measured values taken from PubChem BioAssay AID179 (DTP/NCI, 2004).
“And” between values parts separate entries of the source, which are not always exact repeats. Equal entries are not always repeated. The source made the active and inactive calls.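 Rule for the calls: active = compounds giving half or more protection of infected cells from virus-caused growth loss, again on retest; inactive = the rest.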

System: CEM cells HIV-1 protection, formazan growth assay
Assay: NCI AIDS Antiviral Assay
Conditions: for IC50: measured here: growth of uninfected CEM cells
In short: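 Human CEM cells, uninfected and HIV-1-infected, exposed to five drug concentrations; growth measured by soluble formazan assay and scored as percent protection from infection, with protecting compounds retested.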

Row | Structure (SMILES) | EC50 [µM] | IC50 | outcome
1 | CCOC(=O)C(C(=O)OCC)P(=S)(S)c1ccccc1 (stereo not given) | > 4370 | > 4370 µM | –
2 | CCOC(=O)/C(F)=C/c1ccc(OC)cc1 | > 115 | > 115 µM | –
3 | Cc1cc(N(CCC#N)CCC#N)ccc1/C=C1\N=C(c2cc([N+](=O)[O-])ccc2Cl)N(c2cccc(Cl)c2)C1=O | > 12.6 | > 12.6 µM | –
4 | CCOC(=O)/C(C#N)=C/c1[nH]c(C)c(C)c1C | – | – | inactive
5 | FC(F)(F)C1(C(F)(F)F)OC(Cl)(Cl)C(Cl)(Cl)O1 | > 200 | > 200 µM | –
6 | Cc1nc2ccccn2c1N=Nc1ccc(C(=O)NN)cc1 | > 33.9 | > 33.9 µM | –
7 | N#C/C(=C\N1C(=O)/C(=C/c2cccc([N+](=O)[O-])c2)SC1=S)c1nc2ccccc2s1 | > 200 | 29.5 µM | –
8 | C#CCCCC(=C)C[C@@H]1OC(=O)[C@H](C)[C@@H]1O | > 200 | > 200 µM | –
9 | COC(=O)c1oc([N+](=O)[O-])c(Cl)c1Cl | > 151 | 0.776 µM | –
10 | O=C(CC1(O)C(=O)Nc2ccc(Br)cc21)c1ccc(Cl)cc1 (stereo not given) | > 93.3 | > 93.3 µM | –
11 | Cc1cc(=O)oc2ccccc12 | > 813 | > 813 µM | –
12 | CCOc1ncn(-c2ccc(NC(=S)Nc3ncccn3)cc2)n1 | > 200 | 95.5 µM | –
13 | CCN(CC)CCOCCn1c2c(c3ccccc31)CCCC2 | > 200 | 30.9 µM | –
14 | S=c1cc(-c2ccccc2)ss1 | > 200 | 38 µM and > 200 µM | –
15 | N#Cc1cc2c(cc1Cl)Sc1nccn1S2(=O)=O | > 200 | 0.851 µM | –
16 | COc1ccc(-c2noc(=O)c3ccccc23)cc1 | – | – | inactive
17 | NC/C(=C\C(=O)O)c1ccc(Cl)cc1 | – | – | inactive
18 | CC1C2=C(CC(C)(C)CC2=O)NC2=C1C(=O)CC(C)(C)C2 | > 200 | 166 µM | –
19 | COc1cc(C(O)(CC#N)c2cc3c(cc2Br)OCO3)cc(OC)c1OC (stereo not given) | > 200 | 10 µM | –
20 | CCCCCSSSCCCCC | > 200 | 34.7 µM | –
21 | OCC(c1ccccc1)[P+](c1ccccc1)(c1ccccc1)c1ccccc1 (stereo not given) | > 200 | 11.2 µM | –
22 | CN(C)c1nc2ccccc2[nH]1 | – | – | inactive

Row | Structure (SMILES) | EC50 [µM] | IC50 | outcome
23 | NC(=Nc1ccc(Br)cc1)/N=C(/N)Nc1cccc(S(=O)(=O)Nc2ncc(Cl)cn2)c1 | > 200 | > 200 µM | –
24 | COc1cc2oc(=O)cc(C)c2cc1O | > 871 | 138 µM | –
25 | CC1=NN(C(=O)Cc2ccccc2)C(=O)/C1=C\c1ccc([N+](=O)[O-])cc1 | > 53.7 | > 53.7 µM | –
26 | CCCCCCCC(=O)OC[C@H](C[As](=O)(O)O)OC(=O)CCCCCCC | > 200 | 7.76 µM | –
27 | CCCCCC=C(c1cc(I)c(OC)c(C(=O)OC)c1)c1cc(I)c(OC)c(C(=O)OC)c1 | > 200 | 166 µM | –
28 | C/C(=N\OC(=O)Nc1cccc(Cl)c1)c1ccccc1 | > 200 | 32.4 µM | –
29 | CN1CCC23c4c5cc(-c6cc7c8c(c6O)OC6C(O)C=CC9C(C7)N(C)CCC896)c(O)c4OC2C(O)C=CC3C1C5 (stereo not given) | – | – | inactive
30 | CC(C)CCC1(O)O[C@H]2C[C@H]3[C@@H]4CCC5=CC(=O)C=C[C@]5(C)[C@H]4CC[C@]3(C)[C@H]2[C@@H]1C (stereo not given in full) | – | – | inactive
31 | NNC(=O)CC(=O)Nc1cccc(Cl)c1 | > 200 | 120 µM | –
32 | Cn1c2cccc3nnc4cccc(c4c32)n1C | – | – | inactive
33 | COc1ccc(NC(C)=O)cc1N1C(=O)/C(=C\c2cccc(Oc3ccccc3)c2)SC1c1ccccc1 (stereo not given) | > 200 | 18.6 µM | –
34 | COc1ccc2c3c1OC1C(OC)(OC)CC4(C=C2)CN(C)CCC314 (stereo not given) | – | – | inactive
35 | CC(C)NCCCC(C)Nc1ccnc2ccc3nn(C)nc3c12 (stereo not given) | > 240 | 53.7 µM | –
36 | CC(=O)OC1OC(=O)C(C)(C(C)=O)C1C (stereo not given) | – | – | inactive
37 | C=C(C)C1=NC(C)(C)CC1=C(C)C | – | – | inactive
38 | COC(=O)c1ccccc1/C=C1\Cc2cc3c(cc2C1=O)CCC3 | > 200 | 45.7 µM | –
39 | COC(=O)CCc1ccc2c(c1)C(=O)CC2 | > 200 | > 200 µM | –
40 | CCN(CC)CCC(=O)Nc1ccc2c(c1)C(=O)c1ccc(NC(=O)CCN(CC)CC)cc1C2=O | > 200 | 3.39 µM | –
41 | COc1ccc(/C(C)=C2\CCCN(Cc3ccccc3)C2)cc1 | > 200 | 30.9 µM | –
42 | O=C1C=CC(=O)c2c1ccc1c3ccccc3n(-c3ccccc3)c21 | > 22.4 | 1.07 µM | –
43 | CC(C)CCCC(C)[C@H]1CCC2[C@@H]3CCC4C[C@@H](CCC=C(c5cc(Cl)c(O)c(C(=O)NO)c5)c5cc(Cl)c(O)c(C(=O)NO)c5)CC[C@]4(C)C3CC[C@@]21C (stereo not given in full) | > 200 | > 200 µM | –
44 | BrC1=CCC23CC=C(Br)[C@H]4CC2(COC3)C[C@@H]1O4 (stereo not given in full) | > 200 | 25.1 µM | –

Row | Structure (SMILES) | EC50 [µM] | IC50 | outcome
45 | CC1OC(OC2C(O)COC(OC3C(C)OC(OC4C(OC(=O)[C@]56CCC(C)(C)C[C@@H]5C5=CCC7[C@@]8(C)C[C@H](O)[C@H](OC9OC(CO)C(O)C(OC%10OC(CO)C(O)C(O)C%10O)C9O)[C@@](C)(CO)[C@@H]8CC[C@@]7(C)[C@]5(C)CC6)OCC(O)C4O)C(O)C3O)C2O)C(O)C(O)C1O (stereo not given in full) | > 58.9 | 21.4 µM | –
46 | CC(=O)Nc1nnc(SSc2nnc(NC(C)=O)s2)s1 | 36.3 | 186 µM | –
47 | COc1cc2ccc3c(c2cc1OC)CCc1cnoc1-3 | > 47.9 | > 47.9 µM | –
48 | CC(=O)OCC1OC(Sc2nc(-c3ccc(Cl)cc3)c(C#N)c(=O)n2C2OC(COC(C)=O)C(OC(C)=O)C(OC(C)=O)C2OC(C)=O)C(OC(C)=O)C(OC(C)=O)C1OC(C)=O (stereo not given) | > 100 | 18.6 µM | inactive
49 | c1ccc(CN[C@]23C4C5CC6C7C5C2C7[C@@](NCc2ccccc2)(C64)N3Cc2ccccc2)cc1 (stereo not given in full) | > 200 | 105 µM | –
50 | O=C(Nc1ccccc1)N1CCC2N(C(=O)Nc3ccccc3)CCC3N(C(=O)Nc4ccccc4)CCC1N23 (stereo not given) | > 13.2 | > 13.2 µM | –
51 | COC(=O)[C@H]1C[C@H]1NC(=O)C(CC(=O)OCc1ccccc1)NC(=O)OCc1ccccc1 (stereo not given in full) | > 200 | 79.4 µM | –
52 | Cc1c(C#N)c2nc(C(=O)c3ccc(Br)cc3)cc(-c3ccc(Br)cc3)n2c1C | > 50.1 | > 50.1 µM | –
53 | CC(=O)NNc1nc(C)c(C(=O)NNC(=O)C(=O)Nc2c([N+](=O)[O-])ccc(C)c2C)s1 | > 209 | 107 µM | –
54 | O=C1CC2C3CC1C2C(=O)O3 (stereo not given) | > 200 | > 200 µM | –
55 | CCc1ccc(NCc2cc(OC)c(OC)c(OC)c2)cc1 | > 166 | 0.372 µM and 0.151 µM | –
56 | Cc1nc(-n2nc(-c3ccccc3)cc2-c2ccccc2)sc1C(/C=C/c1ccc([N+](=O)[O-])cc1)=N/NC(N)=S | > 33.1 | 26.9 µM | –
57 | COc1ccc(C(=O)C/C(=N/NC(N)=S)C(=O)Nc2ccccc2)cc1 | > 25.1 | > 25.1 µM | –
58 | Cc1cc(C2C(=O)c3ccccc3C2=O)cc(C)c1O | – | – | inactive
59 | O=S1(=O)CC(c2ccccc2)(c2ccccc2)Nc2ccccc21 | > 200 | > 100 µM | –
60 | Cc1ccc2c3c(c(=O)oc2c1)[C@H](C)C[C@@](C)(CO)O3 | > 200 | 178 µM | –
61 | CCOc1ccccc1NC(=O)C(=O)C(/C(=N/N)C(=O)OC)c1nc2ccc([N+](=O)[O-])cc2[nH]c1=O (stereo not given) | > 263 | > 263 µM | –
62 | C=C[C@@]1(C)CC2CC[C@]3(C)C(C)=CC(=O)CC3[C@]2(C)CC1O (stereo not given in full) | > 200 | 107 µM | –
63 | CCC(C#N)N(Cc1cccc(CN(C(C)=O)C(C#N)CC)c1)C(C)=O (stereo not given) | > 200 | 191 µM | –
64 | COc1c(Cl)cc(S(=O)OC)cc1Cl (stereo not given) | – | – | inactive
65 | C(/COc1cccnc1)=N\NC1=NCCN1 | > 832 | 186 µM | –
66 | C=CCC1(O)C(=O)OC2C(O)COC21O (stereo not given) | > 200 | > 200 µM | –

Row | Structure (SMILES) | EC50 [µM] | IC50 | outcome
67 | O=C1/C(=C/c2ccccc2[N+](=O)[O-])CCCc2ccccc21 | > 200 | 34.7 µM | –
68 | COc1cc(-c2cc(=O)c3cc(C)c(C)c(C(=O)O)c3o2)cc(OC)c1OC | – | – | inactive
69 | COc1cc(N=CN(C)C)c2ncccc2c1 | – | – | inactive
70 | OC(c1ccccc1)(c1ccccc1)C1CC1c1ccncc1 (stereo not given) | > 200 | 117 µM | –
71 | COC(=O)NC1C(C)OC(OC2C/C=C(/C)C3C=CC4C(OC5CC(OC6CC(O)C(OC7CC(O)C(OC)C(C)O7)C(C)O6)C(O)C(C)O5)C(C)CC(C)C4C3(C)/C(O)=C3\C(=O)OC4(CC(C)C(CO)=CC4/C=C\2C)C3=O)CC1(C)[N+](=O)[O-] (stereo not given) | > 209 | 4.79 µM | –
72 | C#Cc1cccc(N2C(=O)CCC2=O)c1 | > 468 | 17.4 µM | –
73 | C/C(CC(=O)Nc1ccc(Cl)c(Cl)c1)=N/NC(=O)C[N+](C)(C)C | > 34.7 | > 34.7 µM | –
74 | O=C1NC(=O)c2c1c1cnn(-c3ccccc3)c1n1cccc21 | > 74.1 | > 74.1 µM | –
75 | CC1(C)NNC(=S)NC1=O | > 1580 | > 1580 µM | –
76 | NC(=O)c1nnc2c(F)cccc2c1N | > 200 | 182 µM | –
77 | N#CC(c1ccc(O)cc1)N1CCN(C(C#N)c2ccc(O)cc2)CC1 (stereo not given) | > 200 | > 200 µM | –
78 | CC(C)(C)OC(=O)NCCCCC(NC(=O)c1ccccc1)C(N)=O (stereo not given) | > 200 | > 200 µM | –
79 | NC1=NCC(CN2CCCC2)O1 (stereo not given) | > 200 | > 200 µM | –
80 | CCc1c2c(cc3c1CC1(C3)Cc3cc4c(c(C(=O)OC)c3C1)CCCC4)CCCC2 (stereo not given) | > 200 | 166 µM | –
81 | C(=C1/CCCCC([n+]2ccccc2)=N1)/c1ccccc1 | – | – | inactive
82 | C[N+]12C=CC=C1C(N1CCCC1)c1scc(-c3ccc(Br)cc3)c12 (stereo not given) | > 200 | 10.7 µM | –
83 | O=C(C=Nc1ccccc1C(=O)[O-])c1ccco1.O=C(C=Nc1ccccc1C(=O)[O-])c1ccco1.[Cu+2] | > 1.91 | > 1.91 µM | –
84 | Nc1c2ccccc2nc2ccccc12 | > 200 | 2.19 µM | –
85 | c1ccc2c(c1)nc1nc3c(cn12)CCCC3 | > 151 | > 151 µM | –
86 | CC(C)/C(Cl)=N/OC(=O)Nc1ccc(OC(F)(F)F)cc1 | > 200 | 10.5 µM | –
87 | CC(C)(CN1CCCCC1)C(=O)/C=C/c1ccccc1 | > 141 | 69.2 µM | –
